According to patent publication US8815842B2 (priority 2006, dated 2014):
Values after ≈ are worked out from the molar mass of the structure shown. Like-named read-outs stand apart in the source and are kept apart here.

Columns and labels:
[1] = system: foot-and-mouth disease virus serotype A; assay type: cell-based
[2] = pig, in vivo, po, 100 mg/kg
[3] = system: foot-and-mouth disease virus serotype Asia 1; assay type: cell-based
[4] = system: foot-and-mouth disease virus; conditions: pig, in vivo
Vero cells = test: cells; assay type: cell-based; conditions: Chlorocebus sabaeus, 96 h, read-out: 50% cell growth inhibitory concentration (IC50)
[5] = Corriedale, sheep, in vivo, po, 100 mg/kg
[6] = black-haired Japanese cattle, bovine, in vivo, po, 100 mg/kg
[7] = system: foot-and-mouth disease virus serotype C; assay type: cell-based
[8] = system: foot-and-mouth disease virus (O/JPN/2000 strain); test: microbe, parasite or virus in culture; assay type: cell-based; conditions: in Sus scrofa, 72 h, read-out: plaque formation 50% inhibitory rate (IC50)

For `NC(=O)c1nccnc1O` [T-1105, 3-oxo-3,4-dihydro-2-pyrazinecarboxamide], the “25% or more inhibitory concentration” value [1] was 0.313 µg/mL, the “Plasma concentration 2 hrs after administration” value (shortened to “Plasma concentration 2 hrs”) [2] was 75000 ng/mL and the “Plasma concentration 8 hrs after administration” value (from here on “Plasma concentration 8 hrs”) [2] was 36400 ng/mL. The “25% or more inhibitory concentration” value [3] was 0.625 µg/mL, the “change in appearance (lameness, dysstasia, blister formation in feet)” value [4] was “no change in their appearance” and the “plasma viral load, in words” value [4] was “remained at the detection limit or bellow”. The “viral load in the nasal swab, in words” value [4] was “scarcely increased”, the clinical sign ([4]; 400 mg/kg/day) was “−” and the plasma viral load ([4]; 400 mg/kg/day) was less than 0.14 TCID50/μL. The “toxic finding during the administration period” value ([4]; 400 mg/kg/day) was “no toxic finding”, the “viral load in the nasal swab” value ([4]; 400 mg/kg/day) was <0.07 TCID50/μL of swab solution and the IC50 (Vero cells) was no less than 250 µg/mL. The “Plasma concentration 2 hrs” value [5] was 30900 ng/mL, the “Plasma concentration 8 hrs” value [5] was 10200 ng/mL and the “Plasma concentration 2 hrs” value [6] was 7860 ng/mL. For the same molecule, the “Plasma concentration 8 hrs” value [6] was 173 ng/mL, the “25% or more inhibitory concentration” value [7] was 1.25 µg/mL and the IC50 [8] was 1.6 µg/mL (≈ 11.5 µM).
